What was measured:
Assay in all cases: PRESTO-Tango GPCR screen
Format in all cases: cell-based
Conditions in all cases: 100 µM
[1] = target: T1, GPR160 (Homo sapiens, UniProt Q9UJ42)
T1 construct: purchased PRESTO-Tango GPCR kit (Roth lab / Addgene)
Outline: (§1)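 Steps: HTLA cells plated; next day, GPCR-Tango plasmid delivered with polyethylenimine; 16-24 h later, medium swapped for DMEM with 10 mM HEPES plus compound (100 μM final); 20 h later, Bright-Glo added and luminescence measured; fold over PBS computed.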

[2] = target: T2, GPR151 (Homo sapiens, UniProt Q8TDV0)
T2 construct: purchased PRESTO-Tango GPCR kit (Roth lab / Addgene)
Outline: as §1

[3] = target: T3, MC2R (Homo sapiens, UniProt Q01718)
T3 construct: purchased PRESTO-Tango GPCR kit (Roth lab / Addgene)
Outline: as §1

[4] = target: T4, SSTR4 (Homo sapiens, UniProt P31391)
T4 construct: purchased PRESTO-Tango GPCR kit (Roth lab / Addgene)
Outline: as §1

[5] = target: T5, GPR50 (Homo sapiens, UniProt Q13585)
T5 construct: purchased PRESTO-Tango GPCR kit (Roth lab / Addgene)
Outline: as §1

[6] = target: T6, TA1 (Homo sapiens, UniProt Q96RJ0)
T6 construct: purchased PRESTO-Tango GPCR kit (Roth lab / Addgene)
Outline: as §1

[7] = target: T7, LHCGR (Homo sapiens, UniProt P22888)
T7 construct: purchased PRESTO-Tango GPCR kit (Roth lab / Addgene)
Outline: as §1

[8] = target: T8, GPR144 (Homo sapiens, UniProt Q7Z7M1)
T8 construct: purchased PRESTO-Tango GPCR kit (Roth lab / Addgene)
Outline: as §1

[9] = target: T9, PTGFR (Homo sapiens, UniProt P43088)
T9 construct: purchased PRESTO-Tango GPCR kit (Roth lab / Addgene)
Outline: as §1

[10] = target: T10, RXFP1 (Homo sapiens, UniProt Q9HBX9)
T10 construct: purchased PRESTO-Tango GPCR kit (Roth lab / Addgene)
Outline: as §1

[11] = target: T11, SCTR (Homo sapiens, UniProt P47872)
T11 construct: purchased PRESTO-Tango GPCR kit (Roth lab / Addgene)
Outline: as §1

[12] = target: T12, GPBA (Homo sapiens, UniProt Q8TDU6)
T12 construct: purchased PRESTO-Tango GPCR kit (Roth lab / Addgene)
Outline: as §1

[13] = target: T13, HTR4 (Homo sapiens, UniProt Q13639)
T13 construct: purchased PRESTO-Tango GPCR kit (Roth lab / Addgene)
Outline: as §1

[14] = target: T14, GPER (Homo sapiens, UniProt Q99527)
T14 construct: purchased PRESTO-Tango GPCR kit (Roth lab / Addgene)
Outline: as §1

[15] = target: T15, MLNR (Homo sapiens, UniProt O43193)
T15 construct: purchased PRESTO-Tango GPCR kit (Roth lab / Addgene)
Outline: as §1

[16] = target: T16, CALCRL (Homo sapiens, UniProt Q16602)
T16 construct: purchased PRESTO-Tango GPCR kit (Roth lab / Addgene)
Outline: as §1

[17] = target: T17, GPR119 (Homo sapiens, UniProt Q8TDV5)
T17 construct: purchased PRESTO-Tango GPCR kit (Roth lab / Addgene)
Outline: as §1

[18] = target: T18, CASR (Homo sapiens, UniProt P41180)
T18 construct: purchased PRESTO-Tango GPCR kit (Roth lab / Addgene)
Outline: as §1

[19] = target: T19, MAS1 (Homo sapiens, UniProt P04201)
T19 construct: purchased PRESTO-Tango GPCR kit (Roth lab / Addgene)
Outline: as §1

[20] = target: T20, P2RY13 (Homo sapiens, UniProt Q9BPV8)
T20 construct: purchased PRESTO-Tango GPCR kit (Roth lab / Addgene)
Outline: as §1

[21] = target: T21, CHRM2 (Homo sapiens, UniProt P08172)
T21 construct: purchased PRESTO-Tango GPCR kit (Roth lab / Addgene)
Outline: as §1

[22] = target: T22, VIPR1 (Homo sapiens, UniProt P32241)
T22 construct: purchased PRESTO-Tango GPCR kit (Roth lab / Addgene)
Outline: as §1

[23] = target: T23, GPR25 (Homo sapiens, UniProt O00155)
T23 construct: purchased PRESTO-Tango GPCR kit (Roth lab / Addgene)
Outline: as §1

[24] = target: T24, GRM1 (Homo sapiens, UniProt Q13255)
T24 construct: purchased PRESTO-Tango GPCR kit (Roth lab / Addgene)
Outline: as §1

[25] = target: T25, CXCR2 (Homo sapiens, UniProt P25025)
T25 construct: purchased PRESTO-Tango GPCR kit (Roth lab / Addgene)
Outline: as §1

[26] = target: T26, MC3R (Homo sapiens, UniProt P41968)
T26 construct: purchased PRESTO-Tango GPCR kit (Roth lab / Addgene)
Outline: as §1

[27] = target: T27, CCR6 (Homo sapiens, UniProt P51684)
T27 construct: purchased PRESTO-Tango GPCR kit (Roth lab / Addgene)
Outline: as §1

[28] = target: T28, NTSR1 (Homo sapiens, UniProt P30989)
T28 construct: purchased PRESTO-Tango GPCR kit (Roth lab / Addgene)
Outline: as §1

[29] = target: T29, NPY1R (Homo sapiens, UniProt P25929)
T29 construct: purchased PRESTO-Tango GPCR kit (Roth lab / Addgene)
Outline: as §1

[30] = target: T30, DRD5 (Homo sapiens, UniProt P21918)
T30 construct: purchased PRESTO-Tango GPCR kit (Roth lab / Addgene)
Outline: as §1

[31] = target: T31, GPR148 (Homo sapiens, UniProt Q8TDV2)
T31 construct: purchased PRESTO-Tango GPCR kit (Roth lab / Addgene)
Outline: as §1

[32] = target: T32, TACR1 (Homo sapiens, UniProt P25103)
T32 construct: purchased PRESTO-Tango GPCR kit (Roth lab / Addgene)
Outline: as §1

[33] = target: T33, GHRHR (Homo sapiens, UniProt Q02643)
T33 construct: purchased PRESTO-Tango GPCR kit (Roth lab / Addgene)
Outline: as §1

[34] = target: T34, GPR125 (Homo sapiens, UniProt Q8IWK6)
T34 construct: purchased PRESTO-Tango GPCR kit (Roth lab / Addgene)
Outline: as §1

[35] = target: T35, CHRM4 (Homo sapiens, UniProt P08173)
T35 construct: purchased PRESTO-Tango GPCR kit (Roth lab / Addgene)
Outline: as §1

[36] = target: T36, GPR82 (Homo sapiens, UniProt Q96P67)
T36 construct: purchased PRESTO-Tango GPCR kit (Roth lab / Addgene)
Outline: as §1

T13 sequence (Q13639 whole entry): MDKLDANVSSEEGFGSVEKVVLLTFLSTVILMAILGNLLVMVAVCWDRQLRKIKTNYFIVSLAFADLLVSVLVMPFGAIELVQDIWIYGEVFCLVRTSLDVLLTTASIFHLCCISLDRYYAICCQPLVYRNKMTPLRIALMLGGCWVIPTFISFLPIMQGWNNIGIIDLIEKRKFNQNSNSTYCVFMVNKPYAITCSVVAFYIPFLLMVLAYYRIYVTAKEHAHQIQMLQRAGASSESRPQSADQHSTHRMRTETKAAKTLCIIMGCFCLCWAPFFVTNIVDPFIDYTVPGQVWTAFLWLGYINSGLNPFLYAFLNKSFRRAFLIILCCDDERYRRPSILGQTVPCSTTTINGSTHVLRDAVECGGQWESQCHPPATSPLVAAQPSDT
T5 sequence (Q13585 whole entry): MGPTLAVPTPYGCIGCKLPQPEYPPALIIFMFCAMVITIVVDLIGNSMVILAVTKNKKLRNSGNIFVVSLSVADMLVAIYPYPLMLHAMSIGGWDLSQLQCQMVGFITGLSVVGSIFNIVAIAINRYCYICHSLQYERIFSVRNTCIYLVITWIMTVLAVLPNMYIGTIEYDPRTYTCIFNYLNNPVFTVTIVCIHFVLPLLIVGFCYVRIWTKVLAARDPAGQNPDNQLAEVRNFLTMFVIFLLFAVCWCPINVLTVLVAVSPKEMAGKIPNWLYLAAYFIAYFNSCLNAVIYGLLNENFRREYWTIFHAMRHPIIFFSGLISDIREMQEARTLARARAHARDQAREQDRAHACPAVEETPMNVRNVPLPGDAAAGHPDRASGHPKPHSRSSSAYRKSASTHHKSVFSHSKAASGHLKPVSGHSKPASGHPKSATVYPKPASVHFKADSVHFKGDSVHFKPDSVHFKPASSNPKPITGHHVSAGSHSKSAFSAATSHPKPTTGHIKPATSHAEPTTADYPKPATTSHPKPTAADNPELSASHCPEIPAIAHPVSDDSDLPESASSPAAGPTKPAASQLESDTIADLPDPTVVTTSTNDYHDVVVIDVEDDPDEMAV
T2 sequence (Q8TDV0 whole entry): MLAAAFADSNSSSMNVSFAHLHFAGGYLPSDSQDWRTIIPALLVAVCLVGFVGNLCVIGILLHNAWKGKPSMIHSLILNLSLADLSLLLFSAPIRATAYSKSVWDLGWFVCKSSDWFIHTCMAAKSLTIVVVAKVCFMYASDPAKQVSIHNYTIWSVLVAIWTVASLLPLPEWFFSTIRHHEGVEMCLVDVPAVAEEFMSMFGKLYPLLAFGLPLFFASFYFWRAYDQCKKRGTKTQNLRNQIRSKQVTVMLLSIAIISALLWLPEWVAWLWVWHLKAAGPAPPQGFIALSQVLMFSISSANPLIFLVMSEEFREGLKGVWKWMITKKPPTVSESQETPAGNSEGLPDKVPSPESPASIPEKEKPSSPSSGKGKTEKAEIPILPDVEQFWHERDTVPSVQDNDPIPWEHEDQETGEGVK
T29 sequence (P25929 whole entry): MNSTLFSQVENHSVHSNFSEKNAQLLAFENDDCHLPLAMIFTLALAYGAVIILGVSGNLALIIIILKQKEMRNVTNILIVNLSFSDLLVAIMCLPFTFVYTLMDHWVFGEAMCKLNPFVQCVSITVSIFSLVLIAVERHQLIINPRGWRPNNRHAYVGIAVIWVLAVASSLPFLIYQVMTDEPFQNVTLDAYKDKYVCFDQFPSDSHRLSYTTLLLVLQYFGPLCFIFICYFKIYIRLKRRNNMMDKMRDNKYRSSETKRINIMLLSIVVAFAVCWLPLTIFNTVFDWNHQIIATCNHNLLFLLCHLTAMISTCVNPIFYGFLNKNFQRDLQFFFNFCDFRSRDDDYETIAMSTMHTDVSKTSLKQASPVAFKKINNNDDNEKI
T34 sequence (Q8IWK6 34-1321): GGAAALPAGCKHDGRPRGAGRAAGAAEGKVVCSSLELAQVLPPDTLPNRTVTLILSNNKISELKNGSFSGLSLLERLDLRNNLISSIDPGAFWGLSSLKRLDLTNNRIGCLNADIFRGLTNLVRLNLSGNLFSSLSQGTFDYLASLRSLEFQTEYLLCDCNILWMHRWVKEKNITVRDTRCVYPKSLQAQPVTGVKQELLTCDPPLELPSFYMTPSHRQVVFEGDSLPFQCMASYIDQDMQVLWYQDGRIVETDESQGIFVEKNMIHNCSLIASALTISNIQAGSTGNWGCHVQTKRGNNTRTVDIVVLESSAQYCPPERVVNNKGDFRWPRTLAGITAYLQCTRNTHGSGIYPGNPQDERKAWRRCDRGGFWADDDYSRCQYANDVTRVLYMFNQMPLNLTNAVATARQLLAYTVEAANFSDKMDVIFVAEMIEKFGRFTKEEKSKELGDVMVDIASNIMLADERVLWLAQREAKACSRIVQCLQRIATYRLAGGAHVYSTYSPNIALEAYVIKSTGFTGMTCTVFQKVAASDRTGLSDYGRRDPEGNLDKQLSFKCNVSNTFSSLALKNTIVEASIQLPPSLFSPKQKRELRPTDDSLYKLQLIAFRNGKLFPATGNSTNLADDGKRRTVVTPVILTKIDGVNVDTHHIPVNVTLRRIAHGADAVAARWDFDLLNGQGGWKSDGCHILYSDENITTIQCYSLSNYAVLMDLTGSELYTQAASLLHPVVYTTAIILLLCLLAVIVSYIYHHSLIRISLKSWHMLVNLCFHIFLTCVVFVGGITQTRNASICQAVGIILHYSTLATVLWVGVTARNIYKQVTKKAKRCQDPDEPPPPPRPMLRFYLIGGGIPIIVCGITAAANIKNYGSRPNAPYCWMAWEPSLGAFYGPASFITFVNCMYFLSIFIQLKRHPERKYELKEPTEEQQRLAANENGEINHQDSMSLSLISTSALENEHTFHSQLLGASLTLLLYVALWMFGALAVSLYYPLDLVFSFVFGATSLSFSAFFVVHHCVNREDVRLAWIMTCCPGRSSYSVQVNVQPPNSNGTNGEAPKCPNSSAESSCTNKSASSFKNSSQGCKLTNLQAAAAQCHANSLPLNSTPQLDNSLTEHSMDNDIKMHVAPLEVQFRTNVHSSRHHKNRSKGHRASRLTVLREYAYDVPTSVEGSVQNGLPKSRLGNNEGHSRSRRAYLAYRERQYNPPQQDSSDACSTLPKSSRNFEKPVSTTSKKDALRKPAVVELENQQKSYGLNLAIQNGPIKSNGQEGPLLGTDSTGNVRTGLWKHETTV
T7 sequence (P22888 27-699): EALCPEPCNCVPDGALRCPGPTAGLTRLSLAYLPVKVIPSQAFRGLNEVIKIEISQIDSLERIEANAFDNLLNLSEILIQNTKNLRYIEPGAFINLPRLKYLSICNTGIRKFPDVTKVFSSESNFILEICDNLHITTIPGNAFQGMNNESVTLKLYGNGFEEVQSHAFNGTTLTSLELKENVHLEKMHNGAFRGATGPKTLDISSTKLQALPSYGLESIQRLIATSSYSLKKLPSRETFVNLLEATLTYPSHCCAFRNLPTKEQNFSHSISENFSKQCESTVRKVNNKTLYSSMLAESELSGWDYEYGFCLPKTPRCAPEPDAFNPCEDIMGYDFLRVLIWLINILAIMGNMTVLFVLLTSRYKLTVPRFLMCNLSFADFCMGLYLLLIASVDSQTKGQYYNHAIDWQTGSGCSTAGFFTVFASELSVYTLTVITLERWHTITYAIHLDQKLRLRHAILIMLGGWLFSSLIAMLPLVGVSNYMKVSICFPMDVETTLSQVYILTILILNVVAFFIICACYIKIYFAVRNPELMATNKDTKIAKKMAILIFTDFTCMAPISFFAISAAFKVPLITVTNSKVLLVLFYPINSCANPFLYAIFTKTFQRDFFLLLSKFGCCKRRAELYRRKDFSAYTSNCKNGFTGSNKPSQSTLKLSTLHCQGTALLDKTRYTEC
T12 sequence (Q8TDU6 whole entry): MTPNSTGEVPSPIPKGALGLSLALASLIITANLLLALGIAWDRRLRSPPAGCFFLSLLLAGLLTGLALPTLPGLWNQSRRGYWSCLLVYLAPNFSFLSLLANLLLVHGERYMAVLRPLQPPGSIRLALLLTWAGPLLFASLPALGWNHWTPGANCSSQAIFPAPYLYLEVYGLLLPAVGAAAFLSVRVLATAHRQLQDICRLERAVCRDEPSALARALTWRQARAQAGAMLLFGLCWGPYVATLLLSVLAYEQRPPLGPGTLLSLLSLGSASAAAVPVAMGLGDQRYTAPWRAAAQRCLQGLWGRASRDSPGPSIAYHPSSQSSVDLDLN
T28 sequence (P30989 whole entry): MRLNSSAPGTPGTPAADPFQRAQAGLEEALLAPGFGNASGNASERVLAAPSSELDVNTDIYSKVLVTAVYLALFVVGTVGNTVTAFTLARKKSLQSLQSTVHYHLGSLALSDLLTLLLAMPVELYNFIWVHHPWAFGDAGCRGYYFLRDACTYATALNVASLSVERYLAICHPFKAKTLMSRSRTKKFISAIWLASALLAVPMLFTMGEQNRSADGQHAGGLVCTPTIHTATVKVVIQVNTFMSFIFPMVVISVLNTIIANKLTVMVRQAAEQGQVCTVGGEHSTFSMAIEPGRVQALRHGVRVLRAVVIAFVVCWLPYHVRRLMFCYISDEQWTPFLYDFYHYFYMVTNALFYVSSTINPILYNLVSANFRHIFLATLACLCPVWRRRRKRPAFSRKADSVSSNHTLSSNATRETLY
T17 sequence (Q8TDV5 whole entry): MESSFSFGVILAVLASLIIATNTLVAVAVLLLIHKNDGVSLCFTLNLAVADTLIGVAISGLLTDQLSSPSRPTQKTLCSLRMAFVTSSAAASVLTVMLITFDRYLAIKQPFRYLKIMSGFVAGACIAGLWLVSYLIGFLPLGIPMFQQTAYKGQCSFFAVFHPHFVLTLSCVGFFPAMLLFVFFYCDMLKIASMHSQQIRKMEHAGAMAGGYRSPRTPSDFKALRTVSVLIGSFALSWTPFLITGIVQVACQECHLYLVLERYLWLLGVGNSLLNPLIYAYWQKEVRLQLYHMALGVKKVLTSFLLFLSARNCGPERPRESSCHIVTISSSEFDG

| SMILES | GPCR activation (heatmap value) [1] | GPCR activation (heatmap value) [2] | GPCR activation (heatmap value) [3] | GPCR activation (heatmap value) [4] | GPCR activation (heatmap value) [5] | GPCR activation (heatmap value) [6] | GPCR activation (heatmap value) [7] | GPCR activation (heatmap value) [8] | GPCR activation (heatmap value) [9] | GPCR activation (heatmap value) [10] | GPCR activation (heatmap value) [11] | GPCR activation (heatmap value) [12] | GPCR activation (heatmap value) [13] | GPCR activation (heatmap value) [14] | GPCR activation (heatmap value) [15] | GPCR activation (heatmap value) [16] | GPCR activation (heatmap value) [17] | GPCR activation (heatmap value) [18] | GPCR activation (heatmap value) [19] | GPCR activation (heatmap value) [20] | other results |
| --- | --- | --- | --- | --- | --- | --- | --- | --- | --- | --- | --- | --- | --- | --- | --- | --- | --- | --- | --- | --- | --- |
| CC(C)Cc1ncc(CCCCNC(=N)N)[nH]c1=O [3-Homo] | 0.53 | 0.4419 | -0.5707 | 0.2411 | 0.1425 | 0.4199 | 0.1782 | -0.2529 | 0.3992 | -0.5413 | -0.8565 | -0.06085 | -0.1279 | -0.07314 | -0.3794 | 1.281 | -1.3809 | -0.5038 | 0.05755 | 0.4611 | GPCR activation (heatmap value) [21]: 0.1441; GPCR activation (heatmap value) [22]: -0.06399; GPCR activation (heatmap value) [23]: -0.6766; GPCR activation (heatmap value) [24]: -0.1347; GPCR activation (heatmap value) [25]: 0.01869; GPCR activation (heatmap value) [26]: -0.2762; GPCR activation (heatmap value) [27]: -1.378; GPCR activation (heatmap value) [28]: 0.1673; GPCR activation (heatmap value) [29]: -1.44; GPCR activation (heatmap value) [30]: -0.03134; GPCR activation (heatmap value) [31]: 0.1551; GPCR activation (heatmap value) [32]: -0.4178; GPCR activation (heatmap value) [33]: 0.5021; GPCR activation (heatmap value) [34]: -0.2637; GPCR activation (heatmap value) [35]: 0.08984; GPCR activation (heatmap value) [36]: -0.5831 |
| CC(C)Cc1ncc(CCCNC(=N)N)[nH]c1=O [compound 3] | 0.6688 | -0.03391 | 0.1631 | -0.01818 | 0.1425 | -0.5267 | 0.1147 | 0.6653 | 0.901 | -0.4212 | -0.3327 | -0.136 | -1.236 | 0.1603 | -1.345 | -0.1816 | 0.03995 | -0.8261 | 0.09111 | -0.6143 | GPCR activation (heatmap value) [21]: 0.33; GPCR activation (heatmap value) [22]: 0.4975; GPCR activation (heatmap value) [23]: -0.8885; GPCR activation (heatmap value) [24]: 0.374; GPCR activation (heatmap value) [25]: 0.3766; GPCR activation (heatmap value) [26]: 0.4161; GPCR activation (heatmap value) [27]: 0.5005; GPCR activation (heatmap value) [28]: -0.1053; GPCR activation (heatmap value) [29]: -0.2056; GPCR activation (heatmap value) [30]: 1.05; GPCR activation (heatmap value) [31]: 0.6105; GPCR activation (heatmap value) [32]: -0.6956; GPCR activation (heatmap value) [33]: 0.3749; GPCR activation (heatmap value) [34]: 0.4657; GPCR activation (heatmap value) [35]: 0.4059; GPCR activation (heatmap value) [36]: 0.0221 |

From PMC11480411, “Mucosal sugars delineate pyrazine vs pyrazinone autoinducer signaling in Klebsiella oxytoca” (Nature Communications, 2024)
